One assay has as its system Bacillus cereus. Put plainly: Broth dilution sterilization assay, B. cereus. It counts as cell-based. The conditions noted are these: lowest concentration that completely sterilizes bacteria in media, mean of at least three independent measurements. A general note: Broth dilution looks for growth in wells or tubes with falling amounts of substance.
Assay [1] has as its system Pseudomonas aeruginosa (PA01, ATTC 47085). Put plainly: Broth dilution sterilization assay, P. aeruginosa. In kind it is cell-based. The conditions noted are these: lowest concentration that completely sterilizes bacteria in media, mean of at least three independent measurements.
The subject of assay [2] is Staphylococcus aureus (ATCC 25923). As to the kind of experiment: Broth dilution sterilization assay, S. aureus. In kind it is cell-based. The conditions noted are these: lowest concentration that completely sterilizes bacteria in media, mean of at least three independent measurements.
Assay [3] has as its system Escherichia coli (ATCC 25922). As to the kind of experiment: Broth dilution sterilization assay, E. coli. In kind it is cell-based. The note with it: lowest concentration that completely sterilizes bacteria in media, mean of at least three independent measurements.
In assay [4] the test system is bloodstream (infective) form of Trypanosoma brucei. The note with it: cited from earlier work.
Assay [5] has as its system procyclic (noninfective) form of T. brucei. The note with it: cited from earlier work.
Assay [6] concerns Staphylococcus aureus (ATCC 25923). It counts as cell-based.
Assay [7] concerns Escherichia coli (ATCC 25922). It counts as cell-based.
The next assay concerns E. coli. The conditions noted are these: ref 17 (El Karim et al.); cited from earlier work.
The next assay has as its system S. aureus. The conditions noted are these: ref 17 (El Karim et al.); cited from earlier work.

Ends that are not written are not given here.

Regarding PACAP27, in the assay on Bacillus cereus, the “BC Broth, minimum inhibitory concentration (MIC)” value was more than 30 µM. For the same substance, the “PA Broth, minimum inhibitory concentration (MIC)” value in assay [1] came out at 23.6 µM. Further, the “SA Broth, minimum inhibitory concentration (MIC)” value in assay [2] is more than 30 µM. For the same substance, the “EC Broth, minimum inhibitory concentration (MIC)” value in [3] is given as more than 30 µM.
Consider PACAP(6–38), for which the “BC Broth, minimum inhibitory concentration (MIC)” value with Bacillus cereus was more than 30 µM. For the same substance, the “Killing of bloodstream (infective) form of Trypanosoma brucei” value in assay [4] is on record as “effective”. Moreover, the “PA Broth, minimum inhibitory concentration (MIC)” value in assay [1] was 30.0 µM. The “SA Broth, minimum inhibitory concentration (MIC)” value in [2] is given as more than 30 µM. Further, in assay [3], the “EC Broth, minimum inhibitory concentration (MIC)” value was more than 30 µM.
As to “Pituitary adenylate cyclase-activating polypeptide [PACAP38]”, the “BC Broth, minimum inhibitory concentration (MIC)” value in the assay with Bacillus cereus stood at 23.3 µM. In addition, the “Killing of bloodstream (infective) form of Trypanosoma brucei” value in [4] is “killed”. In addition, the “PA Broth, minimum inhibitory concentration (MIC)” value in assay [1] was found to be 1.2 µM. For the same substance, the “SA Broth, minimum inhibitory concentration (MIC)” value in assay [2] is more than 30 µM. The “Effect on procyclic (noninfective) form of T. brucei” value in assay [5] is recorded as “resistant”. Further, the “EC Broth, minimum inhibitory concentration (MIC)” value in assay [3] is listed as 28.3 µM.
Consider RRGWALRLVLAY-NH2 [ARVA], for which the “SA Radial Diffusion, minimum inhibitory concentration (MIC)” value in [6] is reported as 3.46 µM. Besides, the “BC Broth, minimum inhibitory concentration (MIC)” value with Bacillus cereus was found to be 6.4 µM. Moreover, in [1], the “PA Broth, minimum inhibitory concentration (MIC)” value was 4.3 µM. Moreover, the “SA Broth, minimum inhibitory concentration (MIC)” value in assay [2] is on record as 5.1 µM. Further, the “EC Radial Diffusion, minimum inhibitory concentration (MIC)” value in [7] amounted to 1.57 µM. The “EC Broth, minimum inhibitory concentration (MIC)” value in assay [3] is 2.3 µM.
As to [Ala^22]PACAP38, in the assay on Bacillus cereus, the “BC Broth, minimum inhibitory concentration (MIC)” value was 4.84 µM. Further, the “PA Broth, minimum inhibitory concentration (MIC)” value in [1] is given as 0.52 µM. Also, the “SA Broth, minimum inhibitory concentration (MIC)” value in assay [2] was more than 30 µM. Besides, the “EC Broth, minimum inhibitory concentration (MIC)” value in assay [3] was determined as 2.15 µM.
Taken in the same sequence, the figures for [D-Ser^2]PACAP38 were 13.6 µM, 6.1 µM, more than 30 µM and more than 30 µM.
Taken in the same sequence, the figures for “[Pip^3,Aib^16,28,Ala^17,21,Lys^34,D-Lys^38]PACAP38” were 7.26 µM, 0.64 µM, more than 30 µM and 1.43 µM.
Take “[Pip^3,Aib^16,28,Ala^17,Lys^34,D-Lys^38]PACAP38”: the “BC Broth, minimum inhibitory concentration (MIC)” value with Bacillus cereus is recorded as 3.95 µM. The “PA Broth, minimum inhibitory concentration (MIC)” value in [1] came out at 0.52 µM. Also, the “SA Broth, minimum inhibitory concentration (MIC)” value in assay [2] is more than 30 µM. In addition, in assay [3], the “EC Broth, minimum inhibitory concentration (MIC)” value came out at 2.15 µM.
Taken in the same sequence, the figures for [Pip^3]PACAP38 were 8.9 µM, 8.9 µM, more than 30 µM and more than 30 µM.
Taken in the same sequence, the figures for indolicidin were 10.7 µM, more than 50 µM, 7.9 µM and 6.24 µM.
For vasoactive intestinal peptide [VIP], the “BC Broth, minimum inhibitory concentration (MIC)” value in the assay on Bacillus cereus is more than 30 µM. Moreover, the “Activity against E. coli” value in the assay with E. coli is “had activity against E. coli”. The “PA Broth, minimum inhibitory concentration (MIC)” value in assay [1] was determined as 30.0 µM. Moreover, the “SA Broth, minimum inhibitory concentration (MIC)” value in assay [2] is on record as more than 30 µM. The “EC Broth, minimum inhibitory concentration (MIC)” value in [3] was more than 30 µM. Moreover, the “Activity against S. aureus” value in the assay with S. aureus is listed as “not against S. aureus”.

The record behind these values is paper PMC5982112 (Peptides, 2018).
